The values below come from article PMC6198068, “Discovery of a Novel Nav1.7 Inhibitor From Cyriopagopus albostriatus Venom With Potent Analgesic Efficacy” (Frontiers in Pharmacology, 2018).

Type in all cases: cell-based
For experiment [1], the target named is T1, Nav1.7 (Homo sapiens, UniProt Q15858).
T1 construct: expressed in transfected cells; host or cells: HEK293T
Put plainly: Steady-state slow inactivation of Nav1.7. Conditions: 0.2 μM; 15 s pre-pulses; control −52.62 ± 3.79 mV; P < 0.01 paired t-test; mean ± SEM, n = 6–11 cells. An excerpt:
(§1) The cDNA genes encoding rat Nav1.4 and human Nav1.7 were subcloned into vectors pRGB4 and pcDNA3.1-mod, respectively. Mutations of rNav1.4 (N655D, Q657E, and N655D/Q657E) and hNav1.7 (D816N, E818Q, and D816N/E818Q) were constructed using the Gene Tailor Site-Directed Mutagenesis system (Invitrogen, Carlsbad, CA, United States), according to the manufacturer’s instructions. Nav1.2–Nav1.7 and mutant plasmids together with eGFP were transiently transfected into HEK293T cells while Nav1.8 together with eGFP was transiently transfected into ND7/23 cells by Lipofectamine 2000 (Invitrogen, Carlsbad, CA, United States). […] Cells with green fluorescent protein fluorescence were selected for whole-cell patch-clamp recordings 24 h after transfection.
(§2) Whole-cell patch-clamp recordings were performed at room temperature (20–25°C) using an EPC 10 USB Patch Clamp Amplifier (HEKA, Elektronik, Lambrecht, Germany). […] Data was analyzed by software Igo Pro 6.10A (WaveMetrics, Lake Oswego, OR, United States), SigmaPlot 10.0 (Sigma-Aldrich, St. Louis, MO, United States), OriginPro 8 (OriginLab Corp., Northampton, MA, United States), and GraphPad Prism 5 (GraphPad Software, San Diego, CA, United States). […]
Fast inactivation time constants were calculated by fitting current decay traces with a single exponential function using the I–V protocol described above. […]

The target in experiment [2] is T1, Nav1.7. Put plainly: Use/frequency-dependent inhibition of Nav1.7. The note with it: n = 4-5; for IC50: read-out: IC50 Nav1.7, repetitive pulses.
From the text: as §1, with “States). Additionally, plasmids β1- and β2-eGFP encoding the human β1 and β2 subunits, respectively, were co-transfected with those encoding WT Nav1.7 and Nav1.7 mutations in HEK293T cells. Human Nav1.9 was transfected into ND7/23 cells according to a previous report ([Zhou et al., 2017]).” for “States).”
as §2
Fast inactivation time constants were calculated by fitting current decay traces with a single exponential function using the I–V protocol described above. Recovery from fast-inactivation (repriming) was assessed by using a two-pulse protocol consisting of a depolarizing pulse to −10 mV for 50 ms to inactivate channels, followed by a step to −100 mV of variable duration (1 to 1024 ms) to promote recovery, and 50 ms test pulse to −10 mV to assess availability of channels. […]

In a further experiment the target is T2, Nav1.4/N655D/Q657E (Rattus norvegicus, UniProt P15390, N655D/Q657E).
T2 construct: expressed in transfected cells; host or cells: HEK293T
Put plainly: Whole-cell patch-clamp, Nav1.4/N655D/Q657E in HEK293T cells.
From the text: as §1, with “States). Additionally, plasmids β1- and β2-eGFP encoding the human β1 and β2 subunits, respectively, were co-transfected with those encoding WT Nav1.7 and Nav1.7 mutations in HEK293T cells.” for “States).”
as §2
Background: The patch-clamp technique gives a direct electrical read-out from membranes.

In another experiment the target is T3, hNav1.7 (Homo sapiens, UniProt Q15858).
T3 construct: expressed in transfected cells; host or cells: HEK293T
Nature of the experiment: Whole-cell patch-clamp, WT Nav1.7 in HEK293T cells. Conditions: mean ± SEM.
From the text: as §1, with “States). Additionally, plasmids β1- and β2-eGFP encoding the human β1 and β2 subunits, respectively, were co-transfected with those encoding WT Nav1.7 and Nav1.7 mutations in HEK293T cells. Human Nav1.9 was transfected into ND7/23 cells according to a previous report ([Zhou et al., 2017]).” for “States).”
as §2
Concentration-response curves were fitted using the following Hill logistic equation: y = fmax − (fmax − fmin)/(1 + (x/IC50)^n), where fmax and fmin, respectively, represent the channel’s maximum and minimum responses to toxins, fmin was set to 0, x represents toxin concentration and n is an empirical Hill coefficient. […] Peak inward currents from steady-state inactivation were normalized by the maximum current amplitude and fit with a Boltzmann equation I = Imin + 1/(1 + exp[Vm − V1/2/k]) where I is the current amplitude measured during the test depolarization, V1/2 is the midpoint of inaction, and k is the slope factor. […]

Where two headings read alike, the source gives them in different places. Where a SMILES comes first, the peptide text is derived from it. Bridges are numbered along the chain shown (N, C = ends).

T1 sequence (O60939 30-215): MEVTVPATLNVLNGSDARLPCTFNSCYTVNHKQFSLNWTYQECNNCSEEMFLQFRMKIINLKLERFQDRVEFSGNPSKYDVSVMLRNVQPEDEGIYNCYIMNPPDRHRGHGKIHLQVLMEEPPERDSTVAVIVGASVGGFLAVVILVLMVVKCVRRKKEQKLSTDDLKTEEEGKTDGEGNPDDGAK
T1 sequence (Q15858 other isoform, or with tags, fused parts or gaps): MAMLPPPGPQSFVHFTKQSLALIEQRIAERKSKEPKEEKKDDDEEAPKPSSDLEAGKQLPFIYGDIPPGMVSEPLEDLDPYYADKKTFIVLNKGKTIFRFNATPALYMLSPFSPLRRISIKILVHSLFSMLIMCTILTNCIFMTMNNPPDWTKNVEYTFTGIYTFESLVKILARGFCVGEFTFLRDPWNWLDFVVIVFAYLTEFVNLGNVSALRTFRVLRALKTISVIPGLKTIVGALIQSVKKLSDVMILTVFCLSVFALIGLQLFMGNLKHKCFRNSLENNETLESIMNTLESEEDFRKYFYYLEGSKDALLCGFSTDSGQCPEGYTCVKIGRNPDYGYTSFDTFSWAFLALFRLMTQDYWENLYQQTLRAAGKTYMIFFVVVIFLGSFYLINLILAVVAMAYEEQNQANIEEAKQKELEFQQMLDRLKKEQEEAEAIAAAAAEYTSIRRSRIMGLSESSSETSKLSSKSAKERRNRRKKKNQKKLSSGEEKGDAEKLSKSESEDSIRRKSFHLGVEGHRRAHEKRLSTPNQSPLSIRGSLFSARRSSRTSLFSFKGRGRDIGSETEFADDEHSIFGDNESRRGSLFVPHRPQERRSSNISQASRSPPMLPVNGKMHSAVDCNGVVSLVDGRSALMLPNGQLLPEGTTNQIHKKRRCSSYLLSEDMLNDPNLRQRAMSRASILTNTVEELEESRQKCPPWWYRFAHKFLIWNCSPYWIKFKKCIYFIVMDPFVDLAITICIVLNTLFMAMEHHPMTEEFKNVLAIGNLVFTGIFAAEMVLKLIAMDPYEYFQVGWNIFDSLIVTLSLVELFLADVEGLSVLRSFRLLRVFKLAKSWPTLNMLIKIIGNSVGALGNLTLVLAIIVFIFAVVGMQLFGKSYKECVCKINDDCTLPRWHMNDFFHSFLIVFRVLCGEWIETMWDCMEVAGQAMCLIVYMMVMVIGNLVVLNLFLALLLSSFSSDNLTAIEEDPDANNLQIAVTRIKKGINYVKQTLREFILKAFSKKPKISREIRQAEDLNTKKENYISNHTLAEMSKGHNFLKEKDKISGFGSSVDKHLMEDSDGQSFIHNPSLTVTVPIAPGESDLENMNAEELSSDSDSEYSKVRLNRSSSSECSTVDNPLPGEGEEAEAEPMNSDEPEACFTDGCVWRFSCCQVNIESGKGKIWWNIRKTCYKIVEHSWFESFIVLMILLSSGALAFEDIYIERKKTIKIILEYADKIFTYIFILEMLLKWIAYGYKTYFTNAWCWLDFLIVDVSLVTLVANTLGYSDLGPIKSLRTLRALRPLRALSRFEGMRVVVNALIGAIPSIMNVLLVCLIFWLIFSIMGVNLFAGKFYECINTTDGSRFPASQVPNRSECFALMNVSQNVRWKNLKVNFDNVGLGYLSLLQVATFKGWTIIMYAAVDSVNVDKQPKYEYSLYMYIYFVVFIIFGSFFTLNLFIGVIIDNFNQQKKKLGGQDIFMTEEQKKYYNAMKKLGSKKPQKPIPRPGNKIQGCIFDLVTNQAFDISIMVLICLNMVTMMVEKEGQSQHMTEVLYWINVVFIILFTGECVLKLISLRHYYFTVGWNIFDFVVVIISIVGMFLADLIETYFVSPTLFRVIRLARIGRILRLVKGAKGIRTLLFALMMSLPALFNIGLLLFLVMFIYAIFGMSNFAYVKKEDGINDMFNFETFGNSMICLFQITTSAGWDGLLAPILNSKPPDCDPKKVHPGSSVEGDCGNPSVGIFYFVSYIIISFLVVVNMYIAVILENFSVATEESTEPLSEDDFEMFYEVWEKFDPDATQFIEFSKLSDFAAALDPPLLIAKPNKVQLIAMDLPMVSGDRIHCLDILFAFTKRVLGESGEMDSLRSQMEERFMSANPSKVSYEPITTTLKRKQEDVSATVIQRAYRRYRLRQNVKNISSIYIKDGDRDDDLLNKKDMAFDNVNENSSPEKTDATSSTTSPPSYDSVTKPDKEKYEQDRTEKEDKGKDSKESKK
T1 sequence (Q07699 19-218, further chain): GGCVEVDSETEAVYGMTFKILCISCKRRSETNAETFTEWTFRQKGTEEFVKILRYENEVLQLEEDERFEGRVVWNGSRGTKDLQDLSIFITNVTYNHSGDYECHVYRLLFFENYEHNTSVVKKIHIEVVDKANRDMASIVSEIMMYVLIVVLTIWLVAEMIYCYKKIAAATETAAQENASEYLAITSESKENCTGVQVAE
T3 sequence (O60939 30-215): as the sequence (O60939 30-215) above
T3 sequence (Q15858 other isoform, or with tags, fused parts or gaps): as the sequence (Q15858 other isoform, or with tags, fused parts or gaps) above
T3 sequence (Q07699 19-218, further chain): as the sequence (Q07699 19-218, further chain) above
T2 sequence (P15390 whole entry N655D/Q657E): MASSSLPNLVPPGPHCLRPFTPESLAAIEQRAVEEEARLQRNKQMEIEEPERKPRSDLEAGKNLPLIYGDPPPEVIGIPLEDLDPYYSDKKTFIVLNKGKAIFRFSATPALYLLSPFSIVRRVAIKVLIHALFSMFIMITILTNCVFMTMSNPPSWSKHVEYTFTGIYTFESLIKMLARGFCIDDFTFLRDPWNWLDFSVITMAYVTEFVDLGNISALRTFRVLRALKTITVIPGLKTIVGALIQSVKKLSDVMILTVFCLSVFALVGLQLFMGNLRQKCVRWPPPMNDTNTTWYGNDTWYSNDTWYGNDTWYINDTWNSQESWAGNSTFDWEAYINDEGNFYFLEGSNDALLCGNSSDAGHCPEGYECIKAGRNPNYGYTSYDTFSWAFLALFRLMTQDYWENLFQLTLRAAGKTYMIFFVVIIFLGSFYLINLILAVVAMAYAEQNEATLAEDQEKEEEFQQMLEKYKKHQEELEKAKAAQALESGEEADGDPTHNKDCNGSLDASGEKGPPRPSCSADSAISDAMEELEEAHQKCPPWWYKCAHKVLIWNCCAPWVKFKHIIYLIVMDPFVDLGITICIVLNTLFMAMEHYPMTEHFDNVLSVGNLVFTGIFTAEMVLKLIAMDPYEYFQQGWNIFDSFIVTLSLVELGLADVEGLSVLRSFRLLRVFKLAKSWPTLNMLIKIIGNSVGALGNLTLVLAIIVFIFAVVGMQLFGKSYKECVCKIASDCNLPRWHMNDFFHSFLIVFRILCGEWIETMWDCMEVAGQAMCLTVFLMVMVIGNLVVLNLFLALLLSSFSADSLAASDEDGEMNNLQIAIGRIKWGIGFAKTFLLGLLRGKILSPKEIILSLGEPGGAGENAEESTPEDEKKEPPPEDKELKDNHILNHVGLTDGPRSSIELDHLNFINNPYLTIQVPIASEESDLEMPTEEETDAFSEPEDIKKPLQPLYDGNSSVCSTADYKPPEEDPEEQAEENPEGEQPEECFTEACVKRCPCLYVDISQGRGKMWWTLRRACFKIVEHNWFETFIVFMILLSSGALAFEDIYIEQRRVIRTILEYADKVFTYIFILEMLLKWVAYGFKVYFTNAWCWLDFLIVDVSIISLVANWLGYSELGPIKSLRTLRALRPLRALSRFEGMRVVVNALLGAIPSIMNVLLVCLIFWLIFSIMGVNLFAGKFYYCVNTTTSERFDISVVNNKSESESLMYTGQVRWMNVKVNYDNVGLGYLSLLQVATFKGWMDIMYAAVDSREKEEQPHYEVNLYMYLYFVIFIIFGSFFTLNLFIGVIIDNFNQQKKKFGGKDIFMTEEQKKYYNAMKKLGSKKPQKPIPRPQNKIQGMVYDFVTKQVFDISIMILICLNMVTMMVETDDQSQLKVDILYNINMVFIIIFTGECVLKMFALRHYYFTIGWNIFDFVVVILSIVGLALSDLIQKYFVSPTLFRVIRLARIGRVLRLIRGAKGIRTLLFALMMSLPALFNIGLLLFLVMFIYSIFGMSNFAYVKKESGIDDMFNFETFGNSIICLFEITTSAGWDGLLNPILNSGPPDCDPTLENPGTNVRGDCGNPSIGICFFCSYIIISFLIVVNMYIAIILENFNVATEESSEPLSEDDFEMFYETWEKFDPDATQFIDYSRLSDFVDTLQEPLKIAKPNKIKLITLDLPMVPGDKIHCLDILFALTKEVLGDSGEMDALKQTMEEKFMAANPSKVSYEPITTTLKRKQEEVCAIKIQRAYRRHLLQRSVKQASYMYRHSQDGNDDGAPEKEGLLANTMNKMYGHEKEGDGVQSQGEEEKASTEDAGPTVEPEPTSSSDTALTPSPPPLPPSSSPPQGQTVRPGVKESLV

`CC(C)C[C@H](NC(=O)[C@H](CC(=O)O)NC(=O)[C@H](Cc1ccc(O)cc1)NC(=O)[C@H](CCCCN)NC(=O)[C@@H]1CSSC[C@@H]2NC(=O)[C@H](CCCCN)NC(=O)[C@H](CC(=O)O)NC(=O)[C@H](CC(N)=O)NC(=O)[C@H](CO)NC(=O)[C@@H]3CCCN3C(=O)[C@H](CC(N)=O)NC(=O)[C@@H]3CSSC[C@H](NC(=O)[C@H](C(C)C)NC(=O)[C@H](CC(C)C)NC(=O)[C@H](CO)NC(=O)[C@H](CO)NC(=O)[C@H](CO)NC(=O)[C@H](CCCCN)NC(=O)[C@H](CSSC[C@H](NC(=O)[C@H](C)N)C(=O)N[C@@H](CC(C)C)C(=O)NCC(=O)N[C@@H](Cc4ccccc4)C(=O)NCC(=O)N[C@@H](CCC(=O)O)C(=O)N[C@@H](CCCCN)C(=O)N3)NC2=O)C(=O)N[C@@H](CO)C(=O)N[C@@H](CCC(N)=O)C(=O)N[C@@H](CCCCN)C(=O)N[C@@H](Cc2c[nH]cn2)C(=O)N[C@@H](CCCCN)C(=O)N[C@@H](Cc2c[nH]c3ccccc23)C(=O)N1)C(=O)O` [Ca2a] (H-ACLGFGEKCNPSNDKCCKSSSLVCSQKHKWCKYDL-OH; disulfide 2-17, 9-24, 16-31 (inferred); N-terminus and C-terminus assumed): the “steady-state slow inactivation potential of Nav1.7” value at Nav1.7 [1] is listed as −72.00 ± 2.76 mV. Moreover, the “use/frequency dependence of inhibition for Nav1.7” value on Nav1.7 [2] (1, 5 and 10 Hz) is given as “did not show obvious use/frequency dependence”. Also, the IC50 (usually the concentration needed to halve the response being measured) on Nav1.7 [2] (5 Hz) is 244 ± 30.7 nM; at Nav1.7 [2] (10 Hz), 185 ± 23.8 nM; at Nav1.4/N655D/Q657E (mean ± SEM, n = 4–5 cells per data point), 238 ± 26.1 nM; against hNav1.7 (whole-cell patch-clamp, 50 ms to −10 mV from −100 mV, n = 4–7 cells per data point), 98.1 ± 3.3 nM. Besides, at Nav1.4/N655D/Q657E (1 μM, n = 4–5 cells), the “inhibition of peak current of Nav1.4/N655D/Q657E” value is given as “significantly inhibited”. Moreover, the inhibition (as a rule, the relative decrease from the control value, in per cent) at 0.2 µM on hNav1.7 (HEK-293T, 0.2 μM, read-out: inhibition of Nav1.7 current) was 64.5 ± 2.1%. In addition, at hNav1.7 (HEK-293T, 1 μM, 50 ms depolarization to −10 mV from −100 mV, room temperature, read-out: inhibition on Nav1.7 currents), the inhibition at 1 µM was found to be 87.3 ± 4.4%.
